Consider 24 compounds from patent US20040147574A1, “Isothiazole derivatives” (Pfizer Inc, priority 2003, published 2004).

Structures are written as SMILES.

The target of this test is T1, TβRII kinase (Homo sapiens, UniProt P37173).
T1 construct: cytoplasmic domain of TβRII-amino acids 193-567 with A to V change at 438
T1 sequence (P37173 193-567): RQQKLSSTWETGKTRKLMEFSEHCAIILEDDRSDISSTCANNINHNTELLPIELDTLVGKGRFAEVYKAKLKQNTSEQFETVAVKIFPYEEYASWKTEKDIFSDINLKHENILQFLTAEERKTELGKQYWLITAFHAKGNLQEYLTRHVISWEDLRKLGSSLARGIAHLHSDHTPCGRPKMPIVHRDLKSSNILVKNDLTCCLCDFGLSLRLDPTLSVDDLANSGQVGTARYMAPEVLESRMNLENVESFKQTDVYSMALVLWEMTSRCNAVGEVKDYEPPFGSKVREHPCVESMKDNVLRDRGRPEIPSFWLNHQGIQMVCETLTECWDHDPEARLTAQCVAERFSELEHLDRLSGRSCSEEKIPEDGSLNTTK
The test is described as follows: TGF-β Type II Receptor (TβRII) kinase assay: phosphorylation of myelin basic protein. It is filed as biochemical. Conditions: GST-TβRII 27 nanomolar, MBP 3 micromolar, ATP 0.25 micromolar, 90 minutes at room temperature. Here is the method: Phosphorylation of myelin basic protein (MBP) by the TβRII kinase was measured as follows: 80 microliters of MBP (Upstate Biotechnology #13-104) diluted in kinase reaction buffer (KRB) containing 50 mM MOPS, 5 mM MgCl2, pH 7.2 to yield a final concentration of 3 micromolar MBP was added to each well of a Millipore 96-well multiscreen-DP 0.65 micron filtration plate (#MADPNOB50). 20 microliters of inhibitor diluted in KRB was added to appropriate wells to yield the desired final concentration (10-0.03 micromolar). 10 microliters of a mixture of ATP (Sigma #A-5394) and ^33P-ATP (Perkin Elmer #NEG/602H) diluted in KRB was added to yield a final concentration of 0.25 micromolar ATP and 0.02 microcuries of ^33P-ATP per well. 10 microliters of a GST-TβRII fusion protein (glutathione S-transferase at the N-terminal end of the cytoplasmic domain of TβRII-amino acids 193-567 with A to V change at 438) diluted in KRB was added to each well to yield a final concentration of 27 nanomolar GST-TβRII. Plates were mixed and incubated for 90 minutes at room temperature. After the reaction incubation, 100 microliters of cold 20% trichloroacetic acid (Aldrich #25,139-9) was added per well and plates were mixed and incubated for 60 minutes at 4° C. Liquid was then removed from the wells using a Millipore vacuum manifold. Plates were washed once with 200 microliters per well of cold 10% trichloroacetic acid followed by two washes with 100 microliters per well of cold 10% trichloroacetic acid. Plates were allowed to dry overnight at room temperature. 20 microliters of Wallac OptiPhase SuperMix scintillation cocktail was added to each well. Plates were sealed and counted using a Wallac 1450 Microbeta liquid scintillation counter. The potency of inhibitors was determined by their ability to reduce TβRII-mediated phosphorylation of the MBP substrate.
In the case of `NC(=O)c1c(OCc2cccnc2)nsc1NC(=O)NCCC1=CCCCC1` [Example 3, 5-[3-(2-Cyclohex-1-enyl-ethyl)-ureido]-3-(pyridin-3-ylmethoxy)-isothiazole-4-carboxylic acid amide], inhibition was half-maximal at 1610 nM (IC50). Consider `Cc1ccc(C)c(CNC(=O)Nc2snc(OCc3cccnc3)c2C(N)=O)c1` [Example 4, 5-[3-(2,5-Dimethyl-benzyl)-ureido]-3-(pyridin-3-ylmethoxy)-isothiazole-4-carboxylic acid amide], for which the IC50 (in general, the point on the concentration scale where inhibition reaches its midpoint) was found to be 1600 nM.

With `COc1ccc(CCNC(=O)Nc2snc(OCc3cccnc3)c2C(N)=O)cc1OC` [Example 6, 5-{3-[2-(3,4-Dimethoxy-phenyl)-ethyl]-ureido}-3-(pyridin-3-ylmethoxy)-isothiazole-4-carboxylic acid amide], the midpoint of inhibition, the IC50, lay at 754 nM.

As for `NC(=O)c1c(OCc2cccnc2)nsc1NC(=O)NCCc1ccccc1` [Example 7, 5-(3-Phenethyl-ureido)-3-(pyridin-3-ylmethoxy)-isothiazole-4-carboxylic acid amide], the concentration for half-maximal inhibition (IC50) came out at 940 nM.

On to `CCOc1cc(CCNC(=O)Nc2snc(OCc3cccnc3)c2C(N)=O)ccc1OC` [Example 8, 5-{3-[2-(3-Ethoxy-4-methoxy-phenyl)-ethyl]-ureido}-3-(pyridin-3-ylmethoxy)-isothiazole-4-carboxylic acid amide], for which the IC50 amounted to 1970 nM.

With `NC(=O)c1c(OCc2cccnc2)nsc1NC(=O)NCCc1cccc(Cl)c1` [Example 9, 5-{3-[2-(3-Chloro-phenyl)-ethyl]-ureido}-3-(pyridin-3-ylmethoxy)-isothiazole-4-carboxylic acid amide], half-maximal inhibition (IC50) was put at 2260 nM. For `COc1cccc(CCNC(=O)Nc2snc(OCc3cccnc3)c2C(N)=O)c1` [Example 10, 5-{3-[2-(3-Methoxy-phenyl)-ethyl]-ureido}-3-(pyridin-3-ylmethoxy)-isothiazole-4-carboxylic acid amide] the value was 2120 nM.

The compound `NC(=O)c1c(OCc2cccnc2)nsc1NC(=O)NCCc1ccccc1Cl` [Example 11, 5-{3-[2-(2-Chloro-phenyl)-ethyl]-ureido}-3-(pyridin-3-ylmethoxy)-isothiazole-4-carboxylic acid amide] returned an IC50 of 2990 nM.

In the case of `NC(=O)c1c(OCc2cccnc2)nsc1NC(=O)NCCc1ccccc1F` [Example 12, 5-{3-[2-(2-Fluoro-phenyl)-ethyl]-ureido}-3-(pyridin-3-ylmethoxy)-isothiazole-4-carboxylic acid amide], the IC50 came to 3120 nM. For `NC(=O)c1c(OCc2cccnc2)nsc1NC(=O)NCCc1cccc(F)c1` [Example 13, 5-{3-[2-(3-Fluoro-phenyl)-ethyl]-ureido}-3-(pyridin-3-ylmethoxy)-isothiazole-4-carboxylic acid amide] the value was 1480 nM; for `CCOc1ccc(CCNC(=O)Nc2snc(OCc3cccnc3)c2C(N)=O)cc1OC` [Example 14, 5-{3-[2-(4-Ethoxy-3-methoxy-phenyl)-ethyl]-ureido}-3-(pyridin-3-ylmethoxy)-isothiazole-4-carboxylic acid amide], 551 nM. For `NC(=O)c1c(OCc2cccnc2)nsc1NC(=O)NCCCN1CCOCC1` [Example 15, 5-[3-(3-Morpholin-4-yl-propyl)-ureido]-3-(pyridin-3-ylmethoxy)-isothiazole-4-carboxylic acid amide] the value was 437 nM; for `NC(=O)c1c(OCc2cccnc2)nsc1NC(=O)NCCN1CCOCC1` [Example 16, 5-[3-(2-Morpholin-4-yl-ethyl)-ureido]-3-(pyridin-3-ylmethoxy)-isothiazole-4-carboxylic acid amide], 855 nM. For `CCN(CC)CCNC(=O)Nc1snc(OCc2cccnc2)c1C(N)=O` [Example 17, 5-[3-(2-Diethylamino-ethyl)-ureido]-3-(pyridin-3-ylmethoxy)-isothiazole-4-carboxylic acid amide] the value was 1940 nM; for `CN(C)CCCNC(=O)Nc1snc(OCc2cccnc2)c1C(N)=O` [Example 18, 5-[3-(3-Dimethylamino-propyl)-ureido]-3-(pyridin-3-ylmethoxy)-isothiazole-4-carboxylic acid amide], 801 nM. As to `CN1CCCC1CCNC(=O)Nc1snc(OCc2cccnc2)c1C(N)=O` (stereo not drawn) [Example 19, 5-{3-[2-(1-Methyl-pyrrolidin-2-yl)-ethyl]-ureido}-3-(pyridin-3-ylmethoxy)-isothiazole-4-carboxylic acid amide], half-maximal inhibition (IC50) required 457 nM.

In the case of `CC1CCCCN1CCCNC(=O)Nc1snc(OCc2cccnc2)c1C(N)=O` (stereo not drawn) [Example 20, 5-{3-[3-(2-Methyl-piperidin-1-yl)-propyl]-ureido}-3-(pyridin-3-ylmethoxy)-isothiazole-4-carboxylic acid amide], the IC50 came out at 966 nM.

`NC(=O)c1c(OCc2cccnc2)nsc1NC(=O)NC[C@H]1CCCCC[C@H]1O` [Example 21, (R),(R)-5-[3-(2-Hydroxy-cycloheptylmethyl)-ureido]-3-(pyridin-3-ylmethoxy)-isothiazole-4-carboxylic acid amide] returned an IC50 of 759 nM. For `NC(=O)c1c(OCc2cccnc2)nsc1NC(=O)NC[C@H]1CCCCCC[C@H]1O` [Example 22, (R),(R)-5-[3-(2-Hydroxy-cyclooctylmethyl)-ureido]-3-(pyridin-3-ylmethoxy)-isothiazole-4-carboxylic acid amide] the value was 753 nM.

Consider `NC(=O)c1c(OCc2cccnc2)nsc1NC(=O)NCCO` [Example 23, 5-[3-(2-Hydroxy-ethyl)-ureido]-3-(pyridin-3-ylmethoxy)-isothiazole-4-carboxylic acid amide], for which the IC50 was 349 nM. With `CCC(O)CNC(=O)Nc1snc(OCc2cccnc2)c1C(N)=O` (stereo not drawn) [Example 24, 5-[3-(2-Hydroxy-butyl)-ureido]-3-(pyridin-3-ylmethoxy)-isothiazole-4-carboxylic acid amide], the IC50 came to 669 nM. For `CC(Oc1nsc(NC(=O)NCc2ccccn2)c1C(N)=O)c1cccnc1` (stereo not drawn) [Example 25, 3-(1-Pyridin-3-yl-ethoxy)-5-(3-pyridin-2-ylmethyl-ureido)-isothiazole-4-carboxylic acid amide] the value was 7390 nM; for `COc1cccc(OC)c1CNC(=O)Nc1snc(OC(C)c2cccnc2)c1C(N)=O` (stereo not drawn) [Example 26, 5-[3-(2,6-Dimethoxy-benzyl)-ureido]-3-(1-pyridin-3-yl-ethoxy)-isothiazole-4-carboxylic acid amide], 502 nM.

Turning to `CNC(=O)Nc1snc(OC(C)c2cccnc2)c1C(N)=O` (stereo not drawn) [Example 27, 5-(3-Methyl-ureido)-3-(1-pyridin-3-yl-ethoxy)-isothiazole-4-carboxylic acid amide], half-maximal inhibition (IC50) was put at 710 nM.
